Format in all cases: binding
For one assay, the target named is T1, PSD-95-PDZ1-2 (Homo sapiens, UniProt P78352).
T1 construct: PDZ1-2 (61-249); made in house; host or cells: E. coli BL21-DE3 pLysS
As to the kind of experiment: FP saturation and inhibition, TAMRA-Cnskr2 / PSD-95-PDZ1-2. Particulars: saturation, TAMRA-Cnskr2 5 nM; read-out: Kd probe / PSD-95-PDZ1-2. From the text: (§1) First we tested a series of 23 fluorescent-labelled C-terminal peptide ligands (Supplementary Table S1) derived from PDZ-interacting proteins in order to find a probe with good activity towards the PSD-95 PDZ domains and no or little activity against nNOS-PDZ (Supplementary Fig. S1). The Cnskr2 probe fulfilled these selectivity criteria and was used to generate saturation curves with PDZ2 and PDZ1-2 of PSD-95 (Fig. 4a). […] Next, fixed concentrations of TAMRA-Cnskr2, PSD-95-PDZ2/1-2, and nNOS-PDZ were applied, corresponding to the conditions at IC50 of the nNOS-PDZ inhibition curve (Fig. 4b) where sensitivity of the assay is greatest. […] Here, we used the Sapk3-peptide as it has the desired high affinity to α1-Syntrophin-PDZ and low affinity to nNOS-PDZ (Supplementary Fig. S1).
(§2) The minor increases in mP at high concentrations, 260-2900 μM, were due to fluorescence artefacts.
(§3) Incubation time was 10–15 minutes (room temperature), and the assay was performed in a 1 × TBS buffer (150 mM NaCl, 10 mM Tris, pH 7.4) using black flat-bottom 384-well plates (Corning Life Sciences, NY) and a Safire2 plate-reader (Tecan, Männedorf, Switzerland). […] TAMRA- and Cy5-probes were measured at excitation/emission values of 530/585 nm (bandwidth = 20 nm) and 635/670 nm (bandwidth = 15 nm), respectively. […]

The target of the next assay is T2, nNOS-PDZ (Homo sapiens, UniProt P29475).
T2 construct: nNOS-PDZ (12–130, human); made in house; host or cells: E. coli
T2 sequence (P29475 12-130): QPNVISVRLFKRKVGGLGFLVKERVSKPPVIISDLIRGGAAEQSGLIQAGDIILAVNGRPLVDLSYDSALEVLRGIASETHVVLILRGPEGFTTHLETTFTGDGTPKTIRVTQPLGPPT
As to the kind of experiment: FP saturation, TAMRA-Cnskr2 / nNOS-PDZ. Particulars: TAMRA-Cnskr2 5 nM, read-out: Kd probe / nNOS-PDZ.
Text: as §1, §2, §3

The target in the next assay is PSD-95-PDZ2 (Homo sapiens, UniProt P78352). Put plainly: FP saturation and inhibition, TAMRA-Cnskr2 / PSD-95-PDZ2. Set-up: PDZ2 (155-249); made in house; host or cells: E. coli BL21-DE3 pLysS. The following applies: saturation, TAMRA-Cnskr2 5 nM; read-out: Kd probe / PSD-95-PDZ2.
Sequence of PSD-95-PDZ2 (P78352 155-249): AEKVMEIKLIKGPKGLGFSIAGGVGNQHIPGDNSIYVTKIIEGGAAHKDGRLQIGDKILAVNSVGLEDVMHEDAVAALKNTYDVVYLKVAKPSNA
Text: as §1, §2, §3

Molecules are shown by their SMILES. Peptide text beside a SMILES is read from it. * marks the point of attachment. 5TAMRA = CN(C)c1ccc2c(c1)Oc1cc(N(C)C)ccc1C21OC(=O)c2cc(C(=O)*)ccc21

T1 sequence (P78352 61-249): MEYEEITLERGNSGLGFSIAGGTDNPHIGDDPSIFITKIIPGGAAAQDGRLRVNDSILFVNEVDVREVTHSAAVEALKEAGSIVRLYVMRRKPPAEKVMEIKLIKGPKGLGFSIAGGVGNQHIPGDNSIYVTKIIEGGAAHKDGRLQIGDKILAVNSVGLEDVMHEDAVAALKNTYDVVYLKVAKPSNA

In the case of `CC[C@H](C)[C@H](NC(=O)[C@H](Cc1ccc(O)cc1)NC(=O)[C@H](CO)NC(=O)[C@H](Cc1c[nH]cn1)NC(=O)[C@@H](NC(=O)[C@H](Cc1c[nH]cn1)NC(=O)CNC(=O)[C@H](CC(N)=O)NC(=O)[C@H](CC(N)=O)NC(=O)c1ccc2c(c1)C(=O)OC21c2ccc(N(C)C)cc2Oc2cc(N(C)C)ccc21)[C@@H](C)O)C(=O)N[C@@H](CCC(=O)O)C(=O)N[C@H](C(=O)N[C@@H](Cc1c[nH]cn1)C(=O)N[C@H](C(=O)O)C(C)C)[C@@H](C)O` [TAMRA-Cnskr2] (5TAMRA-NNGHTHSYIETHV-OH), the Kd on PSD-95-PDZ1-2 is 1100 ± 100 nM; at nNOS-PDZ, greater than 190000 nM; at PSD-95-PDZ2, 380 ± 30 nM.

Values taken from publication PMC4503980 (Scientific Reports, 2015).
